Results as given in PubChem BioAssay (NCI).
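Interpolation was linear, between the two tested concentrations surrounding the appropriate level; five concentrations were tested over 48 hours in 96-well plates. TGI: total growth inhibition.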

Key:
Assay in all cases: inhibition of tumour cell growth, NCI panel, 48 h
SNB-19 CNS = test system: SNB-19 CNS
HT29 colon = test system: HT29 colon
NCI-H522 lung = test system: NCI-H522 lung
NCI-H226 lung = test system: NCI-H226 lung
DLD-1 colon = test system: DLD-1 colon
UO-31 renal = test system: UO-31 renal
SF-539 CNS = test system: SF-539 CNS
OVCAR-3 ovarian = test system: OVCAR-3 ovarian
SK-MEL-2 melanoma = test system: SK-MEL-2 melanoma
SW-620 colon = test system: SW-620 colon
CCRF-CEM leukemia = test system: CCRF-CEM leukemia
DMS 114 small cell lung = test system: DMS 114 small cell lung
SK-OV-3 ovarian = test system: SK-OV-3 ovarian
KM20L2 colon = test system: KM20L2 colon
EKVX NSCLC = test system: EKVX NSCLC
786-0 renal = test system: 786-0 renal
M19-MEL melanoma = test system: M19-MEL melanoma
HCT-15 colon = test system: HCT-15 colon
UACC-257 melanoma = test system: UACC-257 melanoma
RPMI-8226 leukemia = test system: RPMI-8226 leukemia
HCC-2998 colon = test system: HCC-2998 colon
K-562 leukemia = test system: K-562 leukemia
MOLT-4 leukemia = test system: MOLT-4 leukemia
IGROV1 ovarian = test system: IGROV1 ovarian
OVCAR-5 ovarian = test system: OVCAR-5 ovarian
KM12 colon = test system: KM12 colon
SF-295 CNS = test system: SF-295 CNS
U251 CNS = test system: U251 CNS
ACHN renal = test system: ACHN renal
SN12C renal = test system: SN12C renal
RXF 393 renal = test system: RXF 393 renal
SF-268 CNS = test system: SF-268 CNS
NCI-H23 lung = test system: NCI-H23 lung
CAKI-1 renal = test system: CAKI-1 renal
NCI-H460 lung = test system: NCI-H460 lung
HOP-18 NSCLC = test system: HOP-18 NSCLC
LOX IMVI melanoma = test system: LOX IMVI melanoma
OVCAR-4 ovarian = test system: OVCAR-4 ovarian
M14 melanoma = test system: M14 melanoma
MALME-3M melanoma = test system: MALME-3M melanoma
SR leukemia = test system: SR leukemia
LXFL 529 NSCLC = test system: LXFL 529 NSCLC
OVCAR-8 ovarian = test system: OVCAR-8 ovarian
HL-60(TB) leukemia = test system: HL-60(TB) leukemia
XF 498 CNS = test system: XF 498 CNS
SK-MEL-28 melanoma = test system: SK-MEL-28 melanoma
SNB-75 CNS = test system: SNB-75 CNS
HOP-92 NSCLC = test system: HOP-92 NSCLC
TK-10 renal = test system: TK-10 renal
UACC-62 melanoma = test system: UACC-62 melanoma
SNB-78 CNS = test system: SNB-78 CNS
A549 NSCLC = test system: A549 NSCLC
HCT-116 colon = test system: HCT-116 colon
DMS 273 small cell lung = test system: DMS 273 small cell lung
COLO 205 colon = test system: COLO 205 colon

Q: For CO[C@@H]1C=C[C@@]23c4cc5c(cc4CN(C[C@@H]2O)[C@H]3C1)OCO5, which TGI (SNB-19 CNS) is on record?
A: The TGI was over 100 µM.

Q: What about the TGI (HT29 colon) of the same compound?
A: The TGI was over 100 µM.

Q: And the TGI (NCI-H522 lung)?
A: The TGI was 50.7 µM.

Q: What about the TGI (NCI-H226 lung) of the same compound?
A: The TGI was over 100 µM.

Q: And the TGI (DLD-1 colon)?
A: Its TGI is over 100 µM.

Q: And the TGI (UO-31 renal)?
A: Its TGI is 62.2 µM.

Q: What about the TGI (SF-539 CNS) of the same compound?
A: Its TGI is over 100 µM.

Q: And the TGI (OVCAR-3 ovarian)?
A: Its TGI is over 100 µM.

Q: And the TGI (SK-MEL-2 melanoma)?
A: Its TGI is 49.2 µM.

Q: And the TGI (SW-620 colon)?
A: The TGI was over 100 µM.

Q: What about the TGI (CCRF-CEM leukemia) of the same compound?
A: The TGI was 47.7 µM.

Q: And the TGI (DMS 114 small cell lung)?
A: The TGI was over 100 µM.

Q: And the TGI (SK-OV-3 ovarian)?
A: The TGI was over 100 µM.

Q: What about the TGI (KM20L2 colon) of the same compound?
A: The TGI was over 100 µM.

Q: What about the TGI (EKVX NSCLC) of the same compound?
A: Its TGI is over 100 µM.

Q: And the TGI (786-0 renal)?
A: Its TGI is over 100 µM.

Q: And the TGI (M19-MEL melanoma)?
A: Its TGI is over 100 µM.

Q: What about the TGI (HCT-15 colon) of the same compound?
A: Its TGI is over 100 µM.

Q: What about the TGI (UACC-257 melanoma) of the same compound?
A: The TGI was over 100 µM.

Q: What about the TGI (RPMI-8226 leukemia) of the same compound?
A: The TGI was over 100 µM.

Q: What about the TGI (HCC-2998 colon) of the same compound?
A: Its TGI is 56.6 µM.

Q: And the TGI (K-562 leukemia)?
A: Its TGI is over 100 µM.

Q: And the TGI (MOLT-4 leukemia)?
A: Its TGI is 69.5 µM.

Q: And the TGI (IGROV1 ovarian)?
A: The TGI was over 100 µM.

Q: What about the TGI (OVCAR-5 ovarian) of the same compound?
A: Its TGI is over 100 µM.

Q: What about the TGI (KM12 colon) of the same compound?
A: The TGI was over 100 µM.

Q: What about the TGI (SF-295 CNS) of the same compound?
A: The TGI was over 100 µM.

Q: And the TGI (U251 CNS)?
A: The TGI was 73.1 µM.

Q: What about the TGI (ACHN renal) of the same compound?
A: The TGI was over 100 µM.

Q: What about the TGI (SN12C renal) of the same compound?
A: Its TGI is 87.9 µM.

Q: And the TGI (RXF 393 renal)?
A: The TGI was over 100 µM.

Q: What about the TGI (SF-268 CNS) of the same compound?
A: The TGI was over 100 µM.

Q: What about the TGI (NCI-H23 lung) of the same compound?
A: Its TGI is over 100 µM.

Q: What about the TGI (CAKI-1 renal) of the same compound?
A: The TGI was 49.1 µM.

Q: What about the TGI (NCI-H460 lung) of the same compound?
A: Its TGI is over 100 µM.

Q: And the TGI (HOP-18 NSCLC)?
A: The TGI was 83.2 µM.

Q: What about the TGI (LOX IMVI melanoma) of the same compound?
A: The TGI was 80.9 µM.

Q: What about the TGI (OVCAR-4 ovarian) of the same compound?
A: The TGI was 18.8 µM.

Q: What about the TGI (M14 melanoma) of the same compound?
A: Its TGI is 31.5 µM.

Q: What about the TGI (MALME-3M melanoma) of the same compound?
A: Its TGI is 76 µM.

Q: And the TGI (SR leukemia)?
A: The TGI was 77.6 µM.

Q: And the TGI (LXFL 529 NSCLC)?
A: The TGI was over 100 µM.

Q: What about the TGI (OVCAR-8 ovarian) of the same compound?
A: The TGI was over 100 µM.

Q: What about the TGI (HL-60(TB) leukemia) of the same compound?
A: Its TGI is 39.2 µM.

Q: And the TGI (XF 498 CNS)?
A: The TGI was over 100 µM.

Q: What about the TGI (SK-MEL-28 melanoma) of the same compound?
A: Its TGI is over 100 µM.

Q: And the TGI (SNB-75 CNS)?
A: Its TGI is 50.6 µM.

Q: What about the TGI (HOP-92 NSCLC) of the same compound?
A: The TGI was 80.6 µM.

Q: What about the TGI (TK-10 renal) of the same compound?
A: Its TGI is over 100 µM.

Q: What about the TGI (UACC-62 melanoma) of the same compound?
A: The TGI was 64.2 µM.

Q: And the TGI (SNB-78 CNS)?
A: The TGI was over 100 µM.

Q: And the TGI (A549 NSCLC)?
A: The TGI was over 100 µM.

Q: For c1ccc(-c2nc3ccccc3nc2SCc2cccnc2)cc1, which TGI (SNB-19 CNS) is on record?
A: The TGI was over 100 µM.

Q: What about the TGI (HT29 colon) of the same compound?
A: Its TGI is over 100 µM.

Q: What about the TGI (NCI-H226 lung) of the same compound?
A: The TGI was over 100 µM.

Q: And the TGI (UO-31 renal)?
A: The TGI was over 100 µM.

Q: What about the TGI (HCT-116 colon) of the same compound?
A: The TGI was over 100 µM.

Q: And the TGI (OVCAR-3 ovarian)?
A: The TGI was over 100 µM.

Q: What about the TGI (DMS 273 small cell lung) of the same compound?
A: Its TGI is over 100 µM.

Q: What about the TGI (CCRF-CEM leukemia) of the same compound?
A: Its TGI is over 100 µM.

Q: And the TGI (DMS 114 small cell lung)?
A: The TGI was over 100 µM.

Q: And the TGI (SK-OV-3 ovarian)?
A: The TGI was over 100 µM.

Q: And the TGI (EKVX NSCLC)?
A: Its TGI is over 100 µM.

Q: What about the TGI (786-0 renal) of the same compound?
A: Its TGI is over 100 µM.

Q: And the TGI (UACC-257 melanoma)?
A: Its TGI is over 100 µM.

Q: And the TGI (RPMI-8226 leukemia)?
A: Its TGI is over 100 µM.

Q: And the TGI (K-562 leukemia)?
A: The TGI was over 100 µM.

Q: What about the TGI (MOLT-4 leukemia) of the same compound?
A: Its TGI is over 100 µM.

Q: And the TGI (SF-295 CNS)?
A: The TGI was over 100 µM.

Q: What about the TGI (U251 CNS) of the same compound?
A: Its TGI is over 100 µM.

Q: What about the TGI (ACHN renal) of the same compound?
A: Its TGI is over 100 µM.

Q: What about the TGI (SN12C renal) of the same compound?
A: The TGI was over 100 µM.

Q: What about the TGI (SF-268 CNS) of the same compound?
A: The TGI was over 100 µM.

Q: What about the TGI (NCI-H23 lung) of the same compound?
A: Its TGI is over 100 µM.

Q: What about the TGI (HOP-18 NSCLC) of the same compound?
A: Its TGI is over 100 µM.

Q: And the TGI (OVCAR-4 ovarian)?
A: Its TGI is over 100 µM.

Q: And the TGI (M14 melanoma)?
A: Its TGI is over 100 µM.

Q: And the TGI (MALME-3M melanoma)?
A: The TGI was over 100 µM.

Q: What about the TGI (COLO 205 colon) of the same compound?
A: The TGI was over 100 µM.

Q: And the TGI (LXFL 529 NSCLC)?
A: Its TGI is over 100 µM.

Q: What about the TGI (OVCAR-8 ovarian) of the same compound?
A: The TGI was over 100 µM.

Q: What about the TGI (HL-60(TB) leukemia) of the same compound?
A: Its TGI is over 100 µM.

Q: What about the TGI (XF 498 CNS) of the same compound?
A: Its TGI is over 100 µM.

Q: And the TGI (SK-MEL-28 melanoma)?
A: Its TGI is over 100 µM.

Q: What about the TGI (SNB-75 CNS) of the same compound?
A: Its TGI is over 100 µM.

Q: And the TGI (HOP-92 NSCLC)?
A: The TGI was over 100 µM.

Q: What about the TGI (SNB-78 CNS) of the same compound?
A: Its TGI is over 100 µM.

Q: And the TGI (A549 NSCLC)?
A: Its TGI is over 100 µM.
